# From patent publication US20260042764A1, “COMPOSITIONS AND METHODS FOR INHIBITION OF KRAS” (TheRas, Inc., priority 2022, published 2026)
# What was measured:
# [1] = biological target: T1, Avi-KRAS G12R (1-169) GppNHp/RAF1 RBD-3xFLAG (52-151) (Homo sapiens, UniProt P01116, G12R); experiment: Raf1-KRAS G12R-GppNHP disruption HTRF assay (Biological Example 1); format: binding
# T1 construct: Avi-KRAS G12R (1-169)
# Method in brief: (§1)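 Compounds were tested for disruption of KRAS–RAF1 RBD binding by HTRF in 50 mM Tris pH 7.5, 100 mM NaCl, 5 mM MgCl2, 0.1% BSA, 0.01% Tween, 10% DMSO. Protein mix was incubated 1 h at room temperature with shaking, then detection reagents added for another 1 h. Activity expressed as percent of DMSO control.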
# [2] = biological target: T2, Avi-KRAS WT (1-169) GppNHp/RAF1 RBD-3xFLAG (52-151) (Homo sapiens, UniProt P01116); experiment: Raf1-KRAS WT-GppNHP disruption HTRF assay (Biological Example 1); format: binding
# T2 construct: Avi-KRAS WT (1-169)
# Method in brief: as §1
# [3] = biological target: T3, Avi-KRAS G12D (2-169) GTP/RAF1 RBD-3xFLAG (51-131) (Homo sapiens, UniProt P01116, G12D); experiment: Raf1-KRAS G12D-GTP disruption HTRF assay (Biological Example 3); format: binding; conditions: KRAS G12D, GTP-loaded
# T3 construct: Avi-KRAS G12D (2-169)
# Method in brief: (§2)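 Compounds were titrated 10-point, 3-fold from 30 μM against preformed KRAS-GTP:RAF1 RBD (51-131) complexes at 50 nM, using KRAS 2-169 as WT, G12C, G12D or G12V. After 1 h at room temperature in Tris pH 7.5 buffer with MgCl2 and 10% DMSO, time-resolved fluorescence was read. Results are percent activity versus DMSO.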
# [4] = biological target: T4, Avi-KRAS G12V (2-169) GTP/RAF1 RBD-3xFLAG (51-131) (Homo sapiens, UniProt P01116, G12V); experiment: Raf1-KRAS G12V-GTP disruption HTRF assay (Biological Example 3); format: binding; conditions: KRAS G12V, GTP-loaded
# T4 construct: Avi-KRAS G12V (2-169)
# Method in brief: as §2
# SW620 cells (KRAS G12V) = experiment: Cell-based pERK HTRF assay in SW620 cell (Biological Example 4)
# Method in brief: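 SW620 cells were treated for 4 h with compound in a 9-point half-log series from 1 μM top (0.25% DMSO), then lysed. Phospho-ERK was detected by HTRF with d2 and Eu cryptate antibodies after 4–24 h at room temperature, read at 615 nm emission.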
# [5] = KRAS G12R, GppNHp-loaded, class symbols
# [6] = KRAS WT, GppNHp-loaded, class symbols
# [7] = Homo sapiens, SW-620, SW620 (KRAS G12V) cells
# [8] = Homo sapiens, SW-620, SW620 (KRAS G12V) cells, pERK HTRF, class symbols
# [9] = Homo sapiens, SW-620, SW620 (KRAS G12V) cells, pERK HTRF
# T2 sequence (P01116 1-169 isoform P01116-2): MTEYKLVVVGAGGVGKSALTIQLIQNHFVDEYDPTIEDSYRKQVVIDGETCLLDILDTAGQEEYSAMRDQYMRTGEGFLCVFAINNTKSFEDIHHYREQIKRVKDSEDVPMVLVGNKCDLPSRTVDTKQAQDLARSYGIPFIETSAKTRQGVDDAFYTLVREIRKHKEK
# T4 sequence (P01116 2-169 isoform P01116-2 G12V): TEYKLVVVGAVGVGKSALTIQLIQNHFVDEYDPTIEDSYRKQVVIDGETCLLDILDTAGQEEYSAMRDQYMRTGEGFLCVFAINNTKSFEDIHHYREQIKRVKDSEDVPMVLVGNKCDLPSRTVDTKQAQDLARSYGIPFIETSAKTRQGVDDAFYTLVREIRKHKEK
# T1 sequence (P01116 1-169 isoform P01116-2 G12R): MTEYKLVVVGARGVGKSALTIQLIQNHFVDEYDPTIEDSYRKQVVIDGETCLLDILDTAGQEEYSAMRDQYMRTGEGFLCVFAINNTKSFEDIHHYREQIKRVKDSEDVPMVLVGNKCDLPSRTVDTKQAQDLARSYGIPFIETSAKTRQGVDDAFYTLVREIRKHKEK
# T3 sequence (P01116 2-169 isoform P01116-2 G12D): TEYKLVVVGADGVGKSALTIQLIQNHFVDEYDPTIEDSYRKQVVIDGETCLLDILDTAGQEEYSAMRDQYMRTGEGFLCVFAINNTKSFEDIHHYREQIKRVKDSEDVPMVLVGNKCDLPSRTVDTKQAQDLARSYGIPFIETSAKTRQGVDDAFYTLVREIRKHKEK
SMILES,"IC50 [1, 5] [µM]","IC50 [2, 6] [µM]",IC50 [3] [µM],IC50 [4] [µM],IC50 (SW620 cells (KRAS G12V); [7]) [µM],IC50 (SW620 cells (KRAS G12V); [8]) [µM],IC50 (SW620 cells (KRAS G12V); SW620 (KRAS G12V) cells) [µM],"IC50 (SW620 cells (KRAS G12V); SW620 (KRAS G12V) cells, pERK HTRF, class symbols) [µM]",IC50 ([1]; KRAS G12R-GppNHp/RAF1 RBD HTRF) [µM],IC50 ([2]; KRAS WT-GppNHp/RAF1 RBD HTRF) [µM],IC50 (SW620 cells (KRAS G12V); [9]) [µM],"IC50 (SW620 cells (KRAS G12V); SW620 (KRAS G12V) cells, pERK HTRF) [µM]"
"CCN(c1nc(OC[C@@]23CCCN2C[C@H](F)C3)nc2c(F)c(-c3ccc(F)c4sc(N)c(C#N)c34)c(C(F)(F)F)cc12)[C@H]1CCN(C(=O)N2CCN(C(C)=O)CC2)C1 (atropisomer, axis not shown) [Compound 619]",< 0.1,< 0.1,0.1 to 1,0.1 to 1,< 0.1,< 0.1,–,–,–,–,–,–
"Cc1c(C(=O)N(C)C)nn2c1CN(c1nc(OC[C@@]34CCCN3C[C@H](F)C4)nc3c(F)c(-c4ccc(F)c5sc(N)c(C#N)c45)c(C(F)(F)F)cc13)CC2 (atropisomer, axis not shown; (aS)) [Compound 590, 5-((S)-7-(2-amino-3-cyano-7-fluorobenzo[b]thiophen-4-yl)-8-fluoro-2-(((2R,7aS)-2-fluorotetrahydro-1H-pyrrolizin-7a(5H)-yl)methoxy)-6-(trifluoromethyl)quinazolin-4-yl)-N,N,3-trimethyl-4,5,6,7-tetrahydropyrazolo[1,5-a]pyrazine-2-carboxamide]",< 0.1,< 0.1,0.1 to 1,0.1 to 1,–,< 0.1,< 0.1,–,–,–,–,–
CCN(c1nc(OCC23CCCN2CC(F)C3)nc2c(F)c(-c3ccc(F)c4sc(N)c(C#N)c34)c(C(F)(F)F)cc12)C1CC(C)N(C(=O)C2CC2(F)F)C1 (stereo not drawn) [Compound 732],< 0.1,0.1 to 1,0.1 to 1,0.1 to 1,–,–,< 0.1,< 0.1,–,–,–,–
CCC(=O)N1CC[C@@H](N(CC)c2nc(OC[C@@]34CCCN3C[C@H](F)C4)nc3c(F)c(-c4ccc(F)c5sc(N)c(C#N)c45)c(C(F)(F)F)cc23)C1 [Compound 327],–,–,0.1 to 1,0.1 to 1,< 0.1,–,–,–,0.1 to 1,0.1 to 1,< 0.1,–
"CCN(c1nc(OC[C@@]23CCCN2C[C@H](F)C3)nc2c(F)c(-c3ccc(F)c4sc(N)c(C#N)c34)c(C(F)(F)F)cc12)[C@H]1CC(=O)N(C)C1 (atropisomer, axis not shown) [Compound 614]",< 0.1,< 0.1,0.1 to 1,0.1 to 1,< 0.1,< 0.1,–,–,–,–,–,–
"CCN(c1nc(OC[C@@]23CCCN2C[C@H](F)C3)nc2c(F)c(-c3ccc(F)c4sc(N)c(C#N)c34)c(C(F)(F)F)cc12)[C@H]1C[C@@H](C)N(C(=O)[C@H]2CCO2)C1 (atropisomer, axis not shown) [Compound 752]",< 0.1,0.1 to 1,0.1 to 1,0.1 to 1,< 0.1,< 0.1,–,–,–,–,–,–
"CCN(c1nc(OC[C@@]23CCCN2C[C@H](F)C3)nc2c(F)c(-c3ccc(F)c4sc(N)c(C#N)c34)c(C(F)(F)F)cc12)[C@H]1C[C@H](C)N(C(=O)OC)C1 (atropisomer, axis not shown) [Compound 704]",< 0.1,< 0.1,0.1 to 1,0.1 to 1,< 0.1,< 0.1,–,–,–,–,–,–
CCN(c1nc(OC[C@@]23CCCN2C[C@H](F)C3)nc2c(F)c(-c3ccc(F)c4sc(N)c(C#N)c34)c(C(F)(F)F)cc12)[C@H]1CCN(C(=O)C(C)C)C1 [Compound 332],–,–,0.1 to 1,0.1 to 1,< 0.1,–,–,–,< 0.1,< 0.1,–,< 0.1
"N#Cc1c(N)sc2c(F)ccc(-c3c(C(F)(F)F)cc4c(N5C[C@H]6C[C@@H]5CO6)nc(OC[C@@]56CCCN5C[C@H](F)C6)nc4c3F)c12 (single isomer, unassigned) [Compound 287]",–,–,0.1 to 1,0.1 to 1,< 0.1,–,–,–,0.1 to 1,0.1 to 1,< 0.1,–

# The next lines start with the values.
"IC50 [1, 5] [µM]","IC50 [2, 6] [µM]",IC50 [3] [µM],IC50 [4] [µM],IC50 (SW620 cells (KRAS G12V); [7]) [µM],IC50 (SW620 cells (KRAS G12V); [8]) [µM],IC50 (SW620 cells (KRAS G12V); SW620 (KRAS G12V) cells) [µM],"IC50 (SW620 cells (KRAS G12V); SW620 (KRAS G12V) cells, pERK HTRF, class symbols) [µM]",IC50 ([1]; KRAS G12R-GppNHp/RAF1 RBD HTRF) [µM],IC50 ([2]; KRAS WT-GppNHp/RAF1 RBD HTRF) [µM],IC50 (SW620 cells (KRAS G12V); [9]) [µM],"IC50 (SW620 cells (KRAS G12V); SW620 (KRAS G12V) cells, pERK HTRF) [µM]",SMILES
< 0.1,< 0.1,0.1 to 1,0.1 to 1,< 0.1,< 0.1,–,–,–,–,–,–,"CCN1C[C@@H](N(C)c2nc(OC[C@@]34CCCN3C[C@H](F)C4)nc3c(F)c(-c4ccc(F)c5sc(N)c(C#N)c45)c(C(F)(F)F)cc23)CC1=O (atropisomer, axis not shown) [Compound 636]"
< 0.1,< 0.1,≤ 0.1,≤ 0.1,< 0.1,< 0.1,–,–,–,–,–,–,"C[C@H](c1cccnc1N)N(C)c1nc(OC[C@@]23CCCN2C[C@H](F)C3)nc2c(F)c(-c3ccc(F)c4sc(N)c(C#N)c34)c(C(F)(F)F)cc12 (atropisomer, axis not shown) [Compound 600]"
< 0.1,< 0.1,≤ 0.1,≤ 0.1,< 0.1,< 0.1,–,–,–,–,–,–,"CCN(c1nc(OC[C@@]23CCCN2C[C@H](F)C3)nc2c(F)c(-c3ccc(F)c4sc(N)c(C#N)c34)c(C(F)(F)F)cc12)[C@H]1CC(=O)N2CCC[C@@H]12 (atropisomer, axis not shown; (aS)) [Compound 697, 2-amino-4-((S)-4-(ethyl((1S,7aS)-3-oxohexahydro-1H-pyrrolizin-1-yl)amino)-8-fluoro-2-(((2R,7aS)-2-fluorotetrahydro-1H-pyrrolizin-7a(5H)-yl)methoxy)-6-(trifluoromethyl)quinazolin-7-yl)-7-fluorobenzo[b]thiophene-3-carbonitrile]"
< 0.1,< 0.1,≤ 0.1,≤ 0.1,< 0.1,< 0.1,–,–,–,–,–,–,CCN(c1nc(OC[C@@]23CCCN2C[C@H](F)C3)nc2c(F)c(-c3ccc(F)c4sc(N)c(C#N)c34)c(C(F)(F)F)cc12)[C@H]1CCN(C(=O)C2C[C@@H]2F)C1 (stereo partly drawn) [Compound 692]
